Source: US20240197871A1, “COMBINATION OF A CAR T CELL THERAPY AND AN IMMUNOMODULATORY COMPOUND FOR TREATMENT OF LYMPHOMA” (Juno Therapeutics, Inc., priority 2021, published 2024)

Legend:
anti-CD19 CAR T cells [1] = experiment: Cell cycle phase (EdU incorporation) of stimulated anti-CD19 CAR T cells; format: cell-based, human; details: for percentage of cells in G1 phase: P<0.001
Method: (§1) Anti-CD19 CAR-expressing T cell compositions were generated from three different healthy donors as described in Example 1. Prior to use, cryopreserved CD4+ and CD8+ engineered cell compositions were thawed and combined at approximately a 1:1 CD4:CD8 ratio.
(§2) Following incubation, stimulated CAR T cells were harvested, washed twice in media, and assessed.
The cell cycle phases of CAR T cells treated with the compounds during CAR-specific stimulation with the plate-bound anti-idiotypic antibody were determined using EDU incorporation for two hours after three days of stimulation. For EDU incorporation, CAR T cells were labeled using the Click-iT™ EdU Cell Proliferation Kit (Thermo Fisher Scientific), after which the prepared cells were analyzed by flow cytometry. […] Without wishing to be bound by theory, the accumulation of CAR T cells in G1 phase may account for one of the mechanisms by which the compounds can limit onset of exhaustion during chronic stimulation, as shown in Example 3 below.

anti-CD19 CAR T cells [2] = experiment: Intracellular cytokine levels in stimulated anti-CD19 CAR T cells; format: cell-based, human; details: 72 hours, 30 μg/mL anti-idiotypic antibody
Method: as §1, §2
Intracellular cytokine levels in CAR T cells that had been stimulated for 72 hours with 30 μg/mL of anti-idiotypic antibody were determined. To do so, supernatants were collected from the stimulated CAR T cells and were analyzed for interferon-γ (IFN-γ) and interleukin-2 (IL-2) content using a multiplex electrochemiluminescence assay. To stain for intracellular cytokines, including Perforin and Granzyme B, cells were fixed and permeabilized using a Foxp3/Transcription Factor Staining Buffer Set (Thermo Fisher Scientific). Intracellular cytokine levels of IFNγ, perforin, granzyme B, and IL-2 were then determined by flow cytometry. […] Log2 fold-change values greater than zero are indicated with a “+” in FIG. 2F. Similar results were observed when measuring the percentage of cells positive for the cytokines.

RL CD19+ tumor cells = experiment: Cytolytic function: co-culture of anti-CD19 CAR T cells with RL CD19+ tumor cells; format: cell-based; details: E:T 1:1
Method: To do so, CAR T cells were plated on ploy-D-lysine plates. CD19+ tumor cells transduced with IncuCyte® NucLight Red (Essen BioScience Inc.) were then added to the CAR T cells in addition to Compound C or vehicle control. Tumor cell number was measured over multiple days.
Treatment with CAR T cells in combination with either immunomodulatory compound led to lower tumor cell numbers than did CAR T cells alone or the compounds alone.

Ikaros = target: T1, Ikaros (Homo sapiens, UniProt Q13422+Q96SW2); experiment: Ikaros expression in CAR T cells after six days of chronic stimulation (MFI); format: cell-based; details: higher concentrations (e.g., 0.01 μM and 0.1 μM); compared with Compound 2
T1 construct: analyzed by flow cytometry to assess intracellular levels of Ikaros and Aiolos in CAR+ T cells; endogenous in cells; host or cells: primary human CD4+ and CD8+ T cells from healthy donors, lentivirally transduced with an anti-CD19 CAR
Method: To simulate conditions of chronic stimulation, anti-CD19 CAR-expressing T cells, produced as described in Example 1, were incubated with plate-bound CAR-specific anti-idiotypic antibody (see, e.g., WO2018/023100) and incubated at 37° C. for a period of six days. […] For instance, CAR T cells that were re-challenged with CD19+ tumor cells following the six-day stimulation had reduced IFNγ and IL-2 cytokine production (FIG. 3A) and reduced cytolytic function (FIG. 3B) compared to freshly thawed CAR T cells not subjected to the six-day stimulation.
The ability of Compound C to block or reduce this CAR T cell hypofunctionality following chronic stimulation was assessed. To do so, engineered CAR T cells were concurrently treated with Compound C, Compound 2, or a vehicle control during the six-day stimulation. Stimulated CAR T cells were then harvested, washed twice in media, and re-challenged with Granta-519 lymphoma tumor spheroids (that had been transduced with IncuCyte NucLight Red) in the absence of Compound C, after which cytolytic activity was assessed by loss of red fluorescence over time and averaged measurement of tumor spheroid size at various times following co-culture with CAR-T cells. Cytokine production, Ikaros expression, and gene expression of the CAR T Cells also were assessed. […]

[3] = system: Raji lymphoma tumor spheroids; experiment: Simulated intermittent dosing during chronic stimulation, re-challenge with tumor spheroids; format: cell-based; details: for cytolytic activity of chronically stimulated CAR T cells over four-day re-challenge: P<0.0001
Method: The effects of an intermittent Compound C dosing schedule on CAR T cells was assessed.
Anti-CD19 CAR-expressing T cells, produced as described in Example 1, were chronically stimulated as described in Example 3 in the presence of Compound C. During chronic stimulation, Compound C was present at (i) 50 nM for one day and 1 nM for the remaining five days, (ii) 25 nM for one day and 0.5 nM for the remaining five days, (iii) 10 nM for one day and absent for the remaining five days, or (iv) 1 nM for all six days. Stimulated CAR T cells were then re-challenged with Raji lymphoma tumor spheroids in the absence of Compound C, after which cytolytic activity was assessed.
Similar results are shown in FIG. 7B for a separate experiment in which CAR T cells were chronically stimulated for 7 days in the presence or absence of Compound C. In this experiment, Compound C was present at (i) 50 nM for one day and 1 nM for the remaining six days of stimulation, (ii) 25 nM for one day and 0.5 nM for the remaining six days of stimulation, (iii) 10 nM for all seven days of stimulation, or (iv) 1 nM for all seven days of stimulation. Stimulated CAR T cells were then re-challenged with Raji lymphoma tumor spheroids in the absence of Compound C, after which cytolytic activity was assessed over a four-day period. […] The CAR T cells stimulated for seven days in the presence or absence of Compound C were also analyzed for phenotypic T cell memory markers using flow cytometry following chronic stimulation. […] CD27/CCR7 expression, which is a marker for less differentiated, naïve-like T cells, was highest in CAR-expressing CD8 T cells stimulated in the presence of Compound C at 50 nM for one day and 1 nM for the remaining six days of stimulation (* P<0.05).

T1 sequence (Q13422 whole entry): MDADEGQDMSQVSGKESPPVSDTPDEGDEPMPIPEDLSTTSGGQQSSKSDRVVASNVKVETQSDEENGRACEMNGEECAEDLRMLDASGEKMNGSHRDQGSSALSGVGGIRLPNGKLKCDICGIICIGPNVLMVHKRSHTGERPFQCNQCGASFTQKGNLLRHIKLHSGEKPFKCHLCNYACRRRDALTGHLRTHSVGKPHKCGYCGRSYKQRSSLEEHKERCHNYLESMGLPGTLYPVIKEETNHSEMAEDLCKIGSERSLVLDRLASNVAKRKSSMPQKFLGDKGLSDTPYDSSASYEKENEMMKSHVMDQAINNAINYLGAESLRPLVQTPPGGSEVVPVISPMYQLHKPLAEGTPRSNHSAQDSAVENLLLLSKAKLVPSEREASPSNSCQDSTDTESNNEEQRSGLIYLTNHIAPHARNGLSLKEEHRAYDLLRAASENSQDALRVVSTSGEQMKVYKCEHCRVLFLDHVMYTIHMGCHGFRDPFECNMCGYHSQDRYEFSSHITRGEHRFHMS
T1 sequence (Q96SW2 whole entry): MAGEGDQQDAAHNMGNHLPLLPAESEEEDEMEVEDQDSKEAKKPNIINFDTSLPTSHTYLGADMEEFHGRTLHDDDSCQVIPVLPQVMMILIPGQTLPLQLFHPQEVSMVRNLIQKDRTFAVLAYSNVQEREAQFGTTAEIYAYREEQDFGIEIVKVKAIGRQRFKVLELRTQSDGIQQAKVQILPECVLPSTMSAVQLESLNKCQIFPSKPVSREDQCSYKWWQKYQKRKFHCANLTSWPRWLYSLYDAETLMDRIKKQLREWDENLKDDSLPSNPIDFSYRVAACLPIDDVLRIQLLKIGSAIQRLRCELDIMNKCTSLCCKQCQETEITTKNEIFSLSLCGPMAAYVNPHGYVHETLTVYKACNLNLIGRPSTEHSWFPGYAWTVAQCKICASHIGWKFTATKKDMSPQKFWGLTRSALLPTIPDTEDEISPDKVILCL
T1 sequence (Q16531 whole entry partner): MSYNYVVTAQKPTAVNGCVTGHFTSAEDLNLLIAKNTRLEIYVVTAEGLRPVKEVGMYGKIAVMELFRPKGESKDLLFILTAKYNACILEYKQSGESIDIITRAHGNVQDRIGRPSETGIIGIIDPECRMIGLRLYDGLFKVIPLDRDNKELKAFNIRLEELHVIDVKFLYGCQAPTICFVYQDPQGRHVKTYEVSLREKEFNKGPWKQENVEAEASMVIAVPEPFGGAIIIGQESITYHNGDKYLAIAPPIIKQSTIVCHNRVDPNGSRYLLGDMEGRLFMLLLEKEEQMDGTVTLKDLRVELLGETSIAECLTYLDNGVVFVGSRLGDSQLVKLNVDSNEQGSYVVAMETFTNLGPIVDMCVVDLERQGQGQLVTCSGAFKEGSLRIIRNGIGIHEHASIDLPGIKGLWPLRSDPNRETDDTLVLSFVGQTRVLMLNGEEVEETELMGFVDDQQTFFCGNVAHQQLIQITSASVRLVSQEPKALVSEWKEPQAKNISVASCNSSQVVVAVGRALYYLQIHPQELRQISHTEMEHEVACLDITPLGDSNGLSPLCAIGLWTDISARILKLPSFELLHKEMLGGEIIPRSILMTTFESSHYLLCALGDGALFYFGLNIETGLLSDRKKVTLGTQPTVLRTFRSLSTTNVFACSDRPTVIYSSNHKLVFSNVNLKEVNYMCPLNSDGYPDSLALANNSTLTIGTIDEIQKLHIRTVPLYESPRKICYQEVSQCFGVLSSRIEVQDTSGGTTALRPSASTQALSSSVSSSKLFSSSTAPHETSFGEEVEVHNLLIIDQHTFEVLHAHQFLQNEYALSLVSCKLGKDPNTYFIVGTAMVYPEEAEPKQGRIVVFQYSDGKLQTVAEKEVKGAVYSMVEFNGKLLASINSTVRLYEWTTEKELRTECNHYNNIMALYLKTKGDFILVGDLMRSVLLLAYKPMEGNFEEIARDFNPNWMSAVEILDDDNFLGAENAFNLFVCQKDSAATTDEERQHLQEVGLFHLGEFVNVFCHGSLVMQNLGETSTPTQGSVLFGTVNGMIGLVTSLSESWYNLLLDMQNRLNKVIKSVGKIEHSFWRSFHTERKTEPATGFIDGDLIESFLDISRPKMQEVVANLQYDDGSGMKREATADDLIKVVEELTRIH

For `O=C1CC[C@H](N2C(=O)c3cccc(NCc4ccc(CN5CC(N6CCOCC6)C5)cc4F)c3C2=O)C(=O)N1` [Compound C, (S)-2-(2,6-dioxopiperidin-3-yl)-4-((2-fluoro-4-((3-morpholinoazetidin-1-yl)methyl)benzyl)amino)isoindoline-1,3-dione], the “dose with similar effects on percentage of cells in G1 phase, compared to the other compounds tested” value (anti-CD19 CAR T cells [1]) was “ten- or hundred-fold lower dose”, the “percentage of cells in G1 phase” value (anti-CD19 CAR T cells [1]; 1 nM) was “increased” and the “percentage of cells in G1 phase” value (anti-CD19 CAR T cells [1]; 10 nM) was “increased”. The “effect on percentage of cells in G1 phase compared with the other compounds” value (anti-CD19 CAR T cells [1]; at all doses tested) was “most effect on the percentage of cells in G1 phase”, the “intracellular expression of effector cytokines (IFNγ, perforin, granzyme B), fold change in MFI vs vehicle” value (anti-CD19 CAR T cells [2]) was “increased production of certain cytokines” and the “RL tumor cell number vs CAR T cells alone or compound alone” value (RL CD19+ tumor cells; compound at 0.001 μM with anti-CD19 CAR T cells) was “lower”. The “RL tumor cell number vs CAR T cells alone or compound alone” value (RL CD19+ tumor cells; compound at 0.01 μM with anti-CD19 CAR T cells) was “lower”, the “RL tumor cell number vs CAR T cells alone or compound alone” value (RL CD19+ tumor cells; compound at 0.1 μM with anti-CD19 CAR T cells) was “lower” and the “Ikaros expression (MFI) after six days of chronic stimulation” value (Ikaros) was “lowest”. For the same molecule, the “cytolytic activity of chronically stimulated CAR T cells (tumor cell number during re-challenge)” value ([3]; 25 nM for one day and 0.5 nM for the remaining five days of stimulation) was “most increase in cytolytic activity”, the “cytolytic activity of chronically stimulated CAR T cells over four-day re-challenge” value ([3]; 25 nM for one day and 0.5 nM for the remaining six days of stimulation) was “improved cytolytic activity” and the “cytolytic activity of chronically stimulated CAR T cells (tumor cell number during re-challenge)” value ([3]; 50 nM for one day and 1 nM for the remaining five days of stimulation) was “most increase in cytolytic activity”. The “cytolytic activity of chronically stimulated CAR T cells over four-day re-challenge” value ([3]; 50 nM for one day and 1 nM for the remaining six days of stimulation) was “improved cytolytic activity”.
